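Protocol summary: plate cells (96-well), add compound at 5 concentrations, incubate 48 h, interpolate endpoints linearly. The concentration for 50% growth inhibition is given as GI50.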 Calls of active or inactive are those of the source. No stated cut-off is given here; in the data, active = GI50 up to about 1.1 µM and inactive = higher.
What was measured:
Test in all cases: NCI anticancer screen, dose series, 48 h
HCT-116 = test system: HCT-116
UACC-257 = test system: UACC-257
SNB-75 = test system: SNB-75
NCI-H23 = test system: NCI-H23
MDA-N = test system: MDA-N
CAKI-1 = test system: CAKI-1
T47D = test system: T47D
K562 = test system: K562
PC-3 = test system: PC-3
OVCAR-8 = test system: OVCAR-8
SNB-19 = test system: SNB-19
SK-MEL-5 = test system: SK-MEL-5
SK-MEL-2 = test system: SK-MEL-2
HCC 2998 = test system: HCC 2998
MDA-MB-231 = test system: MDA-MB-231
SF-295 = test system: SF-295
SR = test system: SR
A549 = test system: A549
NCI-H226 = test system: NCI-H226
UO-31 = test system: UO-31

SMILES	GI50 (HCT-116)	GI50 (UACC-257)	GI50 (SNB-75)	GI50 (NCI-H23)	GI50 (MDA-N)	GI50 (CAKI-1)	GI50 (T47D)	GI50 (K562)	GI50 (PC-3)	GI50 (OVCAR-8)	GI50 (SNB-19)	GI50 (SK-MEL-5)	GI50 (SK-MEL-2)	GI50 (HCC 2998)	GI50 (MDA-MB-231)	GI50 (SF-295)	GI50 (SR)	GI50 (A549)	GI50 (NCI-H226)	GI50 (UO-31)
CN(C)S(=O)(=O)c1ccc2c(c1)/C(=C1/Nc3ccccc3C1=O)C(=O)N2	23.1 µM (inactive)	> 100 µM (inactive)	0.0617 µM (active)	16.1 µM (inactive)	> 100 µM (inactive)	> 100 µM (inactive)	24.8 µM (inactive)	34.8 µM (inactive)	23 µM (inactive)	32.5 µM (inactive)	15.7 µM (inactive)	> 100 µM (inactive)	18.4 µM (inactive)	> 100 µM (inactive)	17 µM (inactive)	12.9 µM (inactive)	14.7 µM (inactive)	> 100 µM (inactive)	25.2 µM (inactive)	44.3 µM (inactive)
N=c1c2sc3nc4ccccc4n3c2ncn1Cc1ccccc1	> 100 µM (inactive)	> 100 µM (inactive)	> 100 µM (inactive)	> 100 µM (inactive)	> 100 µM (inactive)	> 100 µM (inactive)	> 100 µM (inactive)	–	> 100 µM (inactive)	> 100 µM (inactive)	> 100 µM (inactive)	> 100 µM (inactive)	> 100 µM (inactive)	> 100 µM (inactive)	> 100 µM (inactive)	> 100 µM (inactive)	> 100 µM (inactive)	> 100 µM (inactive)	> 100 µM (inactive)	> 100 µM (inactive)
O=C1c2cccnc2C(=O)C2C3C=CC(C3)C12 (stereo not given)	3.85 µM (inactive)	13.5 µM (inactive)	12.6 µM (inactive)	12.1 µM (inactive)	3.61 µM (inactive)	14.4 µM (inactive)	3.01 µM (inactive)	2.94 µM (inactive)	10.2 µM (inactive)	5.48 µM (inactive)	15 µM (inactive)	10.8 µM (inactive)	5.08 µM (inactive)	15.8 µM (inactive)	2.78 µM (inactive)	12.6 µM (inactive)	2.11 µM (inactive)	12.4 µM (inactive)	13 µM (inactive)	11.8 µM (inactive)
CCCCCCCCCCC(C(=O)O)C1(C(=O)O)CCC(=O)O1 (stereo not given)	> 100 µM (inactive)	> 100 µM (inactive)	> 100 µM (inactive)	> 100 µM (inactive)	> 100 µM (inactive)	> 100 µM (inactive)	> 100 µM (inactive)	> 100 µM (inactive)	> 100 µM (inactive)	> 100 µM (inactive)	> 100 µM (inactive)	–	> 100 µM (inactive)	> 100 µM (inactive)	> 100 µM (inactive)	> 100 µM (inactive)	> 100 µM (inactive)	> 100 µM (inactive)	> 100 µM (inactive)	> 100 µM (inactive)
O=[PH]1c2ccccc2Nc2ccccc21	> 100 µM (inactive)	> 100 µM (inactive)	> 100 µM (inactive)	> 100 µM (inactive)	> 100 µM (inactive)	> 100 µM (inactive)	> 100 µM (inactive)	21.6 µM (inactive)	47.1 µM (inactive)	> 100 µM (inactive)	> 100 µM (inactive)	> 100 µM (inactive)	49.9 µM (inactive)	> 100 µM (inactive)	45.9 µM (inactive)	> 100 µM (inactive)	> 100 µM (inactive)	> 100 µM (inactive)	> 100 µM (inactive)	–
C[C@@H]1O[C@@H](O[C@H]2CC[C@]3(C=O)[C@H]4CC[C@]5(C)[C@@H](c6ccc(=O)oc6)CC[C@]5(O)[C@@H]4CC[C@]3(O)C2)[C@H](O)[C@H](O)[C@H]1O[C@@H]1O[C@H](CO)[C@@H](O)[C@H](O)[C@H]1O [HELLEBRIN]	0.00805 µM (active)	0.0243 µM (active)	0.0198 µM (active)	0.00314 µM (active)	0.0223 µM (active)	0.0121 µM (active)	0.0166 µM (active)	0.0218 µM (active)	0.00938 µM (active)	0.0126 µM (active)	0.0451 µM (active)	0.00841 µM (active)	0.0199 µM (active)	0.0365 µM (active)	0.0379 µM (active)	0.0112 µM (active)	0.00601 µM (active)	–	0.0231 µM (active)	0.0186 µM (active)
C=CCNC(=O)N1CC(C)C(=O)Nc2ccccc21 (stereo not given)	> 100 µM (inactive)	> 100 µM (inactive)	–	> 100 µM (inactive)	> 100 µM (inactive)	> 100 µM (inactive)	> 100 µM (inactive)	> 100 µM (inactive)	> 100 µM (inactive)	> 100 µM (inactive)	> 100 µM (inactive)	> 100 µM (inactive)	> 100 µM (inactive)	> 100 µM (inactive)	> 100 µM (inactive)	> 100 µM (inactive)	> 100 µM (inactive)	> 100 µM (inactive)	> 100 µM (inactive)	> 100 µM (inactive)
